According to PMC7001764 (Cell reports, 2020):

T1: CAPN5-PC (calpain-5 protease core) (Homo sapiens, UniProt O15484)
T1 sequence (O15484 1-343): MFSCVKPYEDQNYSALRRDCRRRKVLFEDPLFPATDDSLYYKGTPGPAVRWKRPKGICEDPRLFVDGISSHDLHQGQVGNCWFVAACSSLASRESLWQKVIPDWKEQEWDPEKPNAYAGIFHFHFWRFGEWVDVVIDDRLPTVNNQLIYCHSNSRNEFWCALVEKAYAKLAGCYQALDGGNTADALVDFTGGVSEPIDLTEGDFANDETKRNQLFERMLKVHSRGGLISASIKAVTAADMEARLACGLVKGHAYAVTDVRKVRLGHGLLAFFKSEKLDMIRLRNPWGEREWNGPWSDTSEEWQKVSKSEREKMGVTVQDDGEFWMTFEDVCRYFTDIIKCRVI


Key:
[1] = biological target: T1, CAPN5-PC (calpain-5 protease core); assay: inhibition of Ac-LLY-AFC hydrolysis by purified CAPN5-PC; format: biochemical
[2] = substrate: CC(=O)N[C@@H](CC(C)C)C(=O)N[C@@H](CC(C)C)C(=O)N[C@@H](Cc1ccc(O)cc1)C(=O)Nc1ccc2c(C(F)(F)F)cc(=O)oc2c1; assay: purified protein; conditions: Ca2+ ([…])

IC50 [1] [nM] | Molecule | Km [2]
1200 ± 300 | CC(C)C[C@H](NC(=O)[C@H]1O[C@@H]1C(=O)O)C(=O)NCCCCN=C(N)N [E-64] | –
– | CAPN5-PC (calpain-5 protease core) (Homo sapiens) (protein) MFSCVKPYEDQNYSALRRDCRRRKVLFEDPLFPATDDSLYYKGTPGPAVRWKRPKGICEDPRLFVDGISSHDLHQGQVGNCWFVAACSSLASRESLWQKVIPDWKEQEWDPEKPNAYAGIFHFHFWRFGEWVDVVIDDRLPTVNNQLIYCHSNSRNEFWCALVEKAYAKLAGCYQALDGGNTADALVDFTGGVSEPIDLTEGDFANDETKRNQLFERMLKVHSRGGLISASIKAVTAADMEARLACGLVKGHAYAVTDVRKVRLGHGLLAFFKSEKLDMIRLRNPWGEREWNGPWSDTSEEWQKVSKSEREKMGVTVQDDGEFWMTFEDVCRYFTDIIKCRVI | 153 × 10^2 ± 38 μM
